Two compounds from paper PMC3773398, “The Subcellular Localization of the Receptor for Platelet-Activating Factor in Neutrophils Affects Signaling and Activation Characteristics” (Clinical and Developmental Immunology, 2013) can be followed below.

In general, EC50 refers to the concentration needed to bring the measured effect to its halfway point.

Experiment [1] concerns the target T1, PAFR (receptor for platelet-activating factor) (Homo sapiens, UniProt P25105).
T1 construct: gene PTAFR
The experiment can be described thus: agonist-induced superoxide release (isoluminol chemiluminescence) in human neutrophils, abolished by PAFR antagonist WEB2086; Ca2+ mobilization EC50 […]. Format: cell-based.

For experiment [2], the target named is T1, PAFR (receptor for platelet-activating factor). The experiment can be described thus: antagonism of PAF ([…])-induced superoxide release in human neutrophils. Format: cell-based.

T1 sequence (P25105 whole entry): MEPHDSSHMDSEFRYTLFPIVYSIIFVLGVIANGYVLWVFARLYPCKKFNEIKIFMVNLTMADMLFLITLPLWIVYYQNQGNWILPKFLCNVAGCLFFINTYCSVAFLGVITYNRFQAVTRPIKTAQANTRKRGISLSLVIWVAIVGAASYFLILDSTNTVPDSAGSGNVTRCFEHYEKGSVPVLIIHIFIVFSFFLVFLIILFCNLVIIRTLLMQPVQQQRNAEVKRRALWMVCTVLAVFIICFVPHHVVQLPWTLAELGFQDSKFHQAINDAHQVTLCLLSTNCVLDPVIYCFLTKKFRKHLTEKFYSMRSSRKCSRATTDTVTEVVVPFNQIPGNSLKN

Regarding `CCCCCCCCCCCCCCCCOC[C@H](COP(=O)([O-])OCC[N+](C)(C)C)OC(C)=O` [PAF], the half-maximal effective concentration (EC50) in experiment [1] was about 800 nM.

On to `Cc1nnc2n1-c1sc(CCC(=O)N3CCOCC3)cc1C(c1ccccc1Cl)=NC2` [WEB2086], for which the “antagonism of PAF (100 nM)-induced superoxide release in human neutrophils” value in experiment [2] was “a specific PAFR antagonist (WEB2086) completely and selectively abolished the release of ROS upon PAF stimulation”.
